Assays:
[1] = target: T1, Adenosine receptor A2a (Homo sapiens, UniProt P29274)
[2] = target: T2, Adenosine receptor A1 (Homo sapiens, UniProt P30542); experiment: Displacement of [3H]DPCPX from A1 adenosine receptor (unknown origin) expressed in CHO cell membrane incubated for 60 mins at room temperature by NXT microplate scintillation counter analysis; format: cell membranes
T2 sequence (P30542 whole entry): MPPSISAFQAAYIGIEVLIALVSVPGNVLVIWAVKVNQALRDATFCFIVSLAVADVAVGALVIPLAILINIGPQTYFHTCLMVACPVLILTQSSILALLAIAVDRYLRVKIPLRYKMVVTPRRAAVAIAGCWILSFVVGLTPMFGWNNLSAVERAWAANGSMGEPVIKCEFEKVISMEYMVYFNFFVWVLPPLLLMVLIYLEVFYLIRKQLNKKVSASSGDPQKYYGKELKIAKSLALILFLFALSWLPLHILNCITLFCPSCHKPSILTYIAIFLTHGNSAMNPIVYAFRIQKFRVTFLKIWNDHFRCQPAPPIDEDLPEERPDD

[3] = target: T1, Adenosine receptor A2a; remark: listed apart in the source
[4] = target: T2, Adenosine receptor A1
[5] = in vitro; conditions: human, liver microsomes
Description: Stability of the compound in human liver microsome assessed as compound remaining measured after 60 mins by UPLC-MS/MS analysis

T1 sequence (P29274 whole entry): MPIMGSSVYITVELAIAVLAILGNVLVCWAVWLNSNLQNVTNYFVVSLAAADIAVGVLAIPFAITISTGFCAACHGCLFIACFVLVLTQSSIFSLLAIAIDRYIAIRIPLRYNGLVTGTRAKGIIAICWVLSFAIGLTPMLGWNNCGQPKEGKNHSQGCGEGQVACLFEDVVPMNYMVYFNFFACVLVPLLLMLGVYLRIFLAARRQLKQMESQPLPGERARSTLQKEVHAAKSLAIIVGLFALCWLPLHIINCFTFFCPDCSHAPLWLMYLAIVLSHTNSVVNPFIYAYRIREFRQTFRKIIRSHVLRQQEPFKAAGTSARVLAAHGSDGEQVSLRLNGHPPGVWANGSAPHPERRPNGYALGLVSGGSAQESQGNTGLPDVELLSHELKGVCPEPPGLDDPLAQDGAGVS

N#Cc1c(-c2ccccc2)nc(NC(=O)C2CCCC2)nc1-c1ccc2c(c1)OCO2
Ki [1]: 0.159 µM

Nc1nc(-c2ccccc2)c2c(n1)-c1ccccc1C2=O
Ki [2]: 0.0001 µM

N#Cc1c(-c2ccccc2)nc(Nc2ccccc2)nc1-c1cccc(O)c1
Ki [3]: 0.0712 µM
Ki [4]: 0.0183 µM

C[C@]12CC[C@H]3[C@@H](CCC4=CC(=O)CC[C@@]43C)[C@@H]1CC[C@@H]2O [TESTOSTERONE]
remaining at 1 h [5]: 3.7%
